Assays:
[1] = Surface charge (zeta potential) at pH 5; format: physicochemical
Description: A facile, green, and powerful strategy was explored to engineer a robust O/W emulsion for co-delivery of water-soluble vitamins (VC, VB6, VB12) and oil-soluble vitamins (VA, VE). The preparation involved the complexation of chitosan and water-soluble vitamins and subsequent formation of chitosan-stabilized O/W emulsions. The approach is illustrated in FIG. 1A. First, the chitosan-vitamin complexes were prepared by mixing solutions of chitosan, anthocyanins, and water-soluble vitamins in deionized water at pH 5. […] The resulting chitosan-vitamin complexes were mixed with canola oil containing oil-soluble vitamins. After homogenization by ultrasonication, the chitosan-stabilized emulsions can form as optically opaque homogenous suspensions. In the ultrasonication process, the chitosan-vitamin complexes tended to coat on the surface of oil droplets, providing a physical layer for stabilization of oil-soluble vitamins. […] The value of the zeta potential (mV) indicates the degree of electrostatic repulsion and is the indicator/predictor of the stability of the dispersed particles. The absolute value difference of positive and negative electrostatic charges, measured in mV, between vitamins and chitosan is not the only factor that keeps the vitamins on the interface.

[2] = Release of vitamins during tea bag steeping process (UV spectrophotometry); format: physicochemical; conditions: for release rate: 4° C., pH 5; for release rate (total amount released): initial 2-minute brewing period, water of pH 5, 4° C., tea bag, spray-dried powder of Example 1
Description: To evaluate the release of encapsulated vitamins from the spray-dried powder into water, 30 mg spray-dried powders was placed in the tea bag, which was then immersed in a beaker containing 30 mL of deionized water (pH 5). The beaker was placed in a shaker and shaken slowly in a water bath at 4° C. or 100° C. At appropriate brewing time intervals, an aliquot of solution (0.5 mL) was removed with a pipette for measuring the released vitamins. To determine the amount of water-soluble vitamins, the pH of solution was adjusted to pH 1, followed by filtration (filter pore size 50 μm). […] The release rate was determined by the following equation: release rate (%)=(released vitamins/initially added vitamins)×100.
At appropriate steeping time intervals, an aliquot of solution (0.5 mL) was removed with a pipette for measuring the released vitamins. To determine the amount of water-soluble vitamins, the pH of solution was adjusted to pH 1, followed by filtration (filter pore size 50 μm). The filtrate was then collected and quantified using a UV-spectrophotometer for absorbance. A blank was prepared using deionized water at pH of 1 (adjusted by HCl).
The absorbance of Vitamin B6 was measured at a wavelength of 291 nm. The absorbance of Vitamin B12 was measured at a wavelength of 361 nm.
At appropriate steeping time intervals, an aliquot of solution (0.5 mL) was removed with a pipette for measuring the released vitamins. To determine the amount of oil-soluble vitamins, the pH of the solution was adjusted to a pH of 1, followed by filtration (filter pore size 50 μm). Then, 3 mL organic solvent (chloroform+methanol, 1:1, v/v) was added into the solution to extract the oil-soluble vitamins. After centrifugation at 1000 g for 5 min, the layer of chloroform was removed and quantified using the UV-spectrophotometer for absorbance. A blank was prepared using chloroform.
Using a UV-spectrophotometer, the absorbance of Vitamin A was measured at a wavelength of 326 nm. The absorbance of Vitamin E was measured at a wavelength of 295 nm.

Row | charge [1] | release rate ([2]; at 5 min) [%] | release rate (total amount released) [2] [%] | release rate ([2]; at 10 min) [%] | Compound
1 | negatively charged | 84.0 | – | – | CCCCCCCCCCCCCCCC(=O)OC/C=C(C)/C=C/C=C(C)/C=C/C1=C(C)CCCC1(C)C [VA, retinol palmitate]
2 | negatively charged | – | 96.5 | – | O=C1O[C@H]([C@@H](O)CO)C(O)=C1O [VC, Vitamin C]
3 | negatively charged | – | 98.8 | – | Vitamin B6 [VB6]
4 | slightly positively charged | – | 100 | – | Vitamin B12 [VB12]
5 | negatively charged | – | – | – | anthocyanin [anthocyanins]
6 | – | – | – | 80.4 | tocopherols, mixed, FG [VE]

From patent US20240009123A1, “MULTI-SUPPLEMENT DELIVERY SYSTEM” (priority 2022, published 2024)
